Assay results taken from patent publication US12239645B2, “Targeted dosing for the treatment of complement mediated disorders” (Achillion Pharmaceuticals, Inc., priority 2018, dated 2025).
Read-outs that look alike come from different tables or passages of the source.

Experiments:
[1] = Phase I single ascending dose (SAD) study: plasma and urine pharmacokinetics; type: in vivo, human; settings: for Aeu(%), GM / Aeu(%), Mean: percentage of dose
Experimental: A single ascending dose (SAD) study was the first-in-human study of Compound 1. […] Secondary objectives included evaluation of the pharmacokinetic (PK) profile and the relationship between Compound 1 PK and pharmacodynamic (PD) characteristics, that is, the inhibition of complement alternative pathway (AP) activity (PK/PD).
[…] were dosed and evaluated in 4 dose groups with ten subjects receiving placebo (Table 1). The first dose group had 6 active and 6 placebo subjects; subsequent groups had 6 active and 2 placebo subjects each. Each group was followed for 28 days after dosing. All subjects were monitored for safety through the last scheduled visit at Day 28. Blood and urine samples were collected at predefined time points from Days 1 to 4 to determine plasma and urine concentrations of Compound 1 and from Days 1 to 7 to determine complement related activities. Results of serum AP activity measured by AP Wieslab assay as well as plasma Bb, factor D level and several other PD biomarkers were determined.
For the 18 subjects comprising the Groups 1-3 SAD PK population, a total of 306 plasma samples (17 samples from each subject collected pre-dose and 0.5, 1, 1.5, 2, 2.5, 3, 4, 6, 8, 10, 12, 16, 24 [Day 2], 48 [Day 3], 72 [Day 4], and 144 [Day 7] hours post-dose) were available for PK determination in plasma.
Single ascending doses of Compound 1 were evaluated to determine plasma and urine PK parameters over the dose range of 40 mg to 120 mg studied. Summary statistics for plasma and urine Compound 1 concentration at each nominal sampling time point are presented by randomized treatment group in Table 2.

[2] = system: Bb fragment of complement Factor B; test: MAD study single-dose cohorts: plasma Bb concentration by ELISA; type: in vivo, human; settings: 240 mg single dose
Experimental: FIG. 15 is a graphical display of mean plasma Bb concentration as determined by ELISA assay for all subjects in the first 24 hours after administration of Compound 1 at single doses of 240 mg in fasted subjects (n=6), 120 mg in fed subjects (n=6) and placebo (n=4). Horizontal dashed gridlines represent: upper limit of normal (1.42 μg/ml); lower limit of normal (0.48 μg/ml); and lower limit of quantitation (LLOQ) (0.33 μg/ml). The x-axis is Time in hours and the y-axis is Mean Plasma Bb Concentration measured in μg/mL.
Serum AP hemolysis activity was assessed in samples collected at predefined time points from Day 1 (pre-dose) through Day 7. Ex vivo serum AP inhibition was more prolonged in the 240 mg dose group than previously observed in the SAD study at doses up to 120 mg (FIG. 14). […] Mean pre-dose (Day 1, 0 h) activity among active subjects was 123.02% (240 mg) and 110.43% (120 mg). Activity was reduced to 10% or lower from 1.5 h through 16 h in the 240 mg group, and from 2 h through 6 h in the 120 mg group. Activity was recovered to nearly pre-dose levels by 48 hours. AP activity in placebo subjects in contrast varied little from the pre-dose value of 109.52%, with a minimum value among all time points of 81.46%. […]

[3] = 40 mg single dose, fasted, plasma
[4] = 40 mg single dose, fasted, urine
[5] = 80 mg single dose, fasted, plasma
[6] = 80 mg single dose, fasted, urine
[7] = 120 mg single dose, fasted, plasma
[8] = 120 mg single dose, fasted, urine

CC(=O)c1nn(CC(=O)N2[C@H](C(=O)Nc3nc(Br)ccc3C)C[C@@]3(C)C[C@@H]23)c2ccc(-c3cnc(C)nc3)cc12 [Compound 1, (1R,3S,5R)-2-(2-(3-acetyl-5-(2-methylpyrimidin-5-yl)-1H-indazol-1-yl)acetyl)-N-(6-bromo-3-methylpyridin-2-yl)-5-methyl-2-azabicyclo[3.1.0]hexane-3-carboxamide]
Maximum mean plasma concentration ([1]; 40 mg single dose): 78.03 ± 19.65 ng/mL
CL/F, GM [1, 3]: 81.26 L/h
CL/F, Mean [1, 3]: 84.27 L/h
t½term, GM [1, 3]: 12.51 h
t½term, Mean [1, 3]: 13.08 h
Aeu, GM [1, 4]: 0.0671 mg
Aeu, Mean [1, 4]: 0.0749 mg
Aeu(%), GM [1, 4]: 0.17%
Aeu(%), Mean [1, 4]: 0.19%
Maximum mean plasma concentration ([1]; 80 mg single dose): 224.05 ± 108.27 ng/mL
CL/F, GM [1, 5]: 63.52 L/h
CL/F, Mean [1, 5]: 70.25 L/h
t½term, GM [1, 5]: 9.80 h
t½term, Mean [1, 5]: 9.92 h
Aeu, GM [1, 6]: 0.2045 mg
Aeu, Mean [1, 6]: 0.3058 mg
Aeu(%), GM [1, 6]: 0.26%
Aeu(%), Mean [1, 6]: 0.38%
Maximum mean plasma concentration ([1]; 120 mg single dose): 282.83 ± 89.15 ng/mL
CL/F, GM [1, 7]: 71.87 L/h
CL/F, Mean [1, 7]: 73.25 L/h
t½term, GM [1, 7]: 12.67 h
t½term, Mean [1, 7]: 13.90 h
Aeu, GM [1, 8]: 0.2683 mg
Aeu, Mean [1, 8]: 0.2913 mg
Aeu(%), GM [1, 8]: 0.22%
Aeu(%), Mean [1, 8]: 0.24%
last post-dose time point with detected plasma concentration ([1]; all SAD dose groups): 72 h
CL renal ([1]; human, plasma and urine, oral, 40 mg to 120 mg single dose, read-out: Renal clearance, geometric mean, range over dose groups): 2.67 to 3.17 mL/min
AUC(0-inf) ([1]; human, plasma, oral, 40 mg, 40 mg single dose, fasted, plasma, read-out: AUC0-inf, GM): 492 ng·h/mL
AUC(0-inf) ([1]; human, plasma, oral, 40 mg, 40 mg single dose, fasted, plasma, read-out: AUC0-inf, Mean): 514 ng·h/mL
Cmax ([1]; human, plasma, oral, 40 mg, 40 mg single dose, fasted, plasma, read-out: Cmax, GM): 85.3 ng/mL
Cmax ([1]; human, plasma, oral, 40 mg, 40 mg single dose, fasted, plasma, read-out: Cmax, Mean): 88.6 ng/mL
Cmax ([1]; human, plasma, oral, 40 mg, 40 mg single dose, fasted, plasma, read-out: Cmax, Median): 79.1 ng/mL
Vd/F ([1]; human, plasma, oral, 40 mg, 40 mg single dose, fasted, plasma, read-out: Vz/F, GM): 1470 L
Vd/F ([1]; human, plasma, oral, 40 mg, 40 mg single dose, fasted, plasma, read-out: Vz/F, Mean): 1500 L
Tmax ([1]; human, plasma, oral, 40 mg, 40 mg single dose, fasted, plasma, read-out: tmax, GM): 1.65 h
Tmax ([1]; human, plasma, oral, 40 mg, 40 mg single dose, fasted, plasma, read-out: tmax, Mean): 1.75 h
Tmax ([1]; human, plasma, oral, 40 mg, 40 mg single dose, fasted, plasma, read-out: tmax, Median): 1.5 h
AUC(0-inf) ([1]; human, plasma, oral, 80 mg, 80 mg single dose, fasted, plasma, read-out: AUC0-inf, GM): 1260 ng·h/mL
AUC(0-inf) ([1]; human, plasma, oral, 80 mg, 80 mg single dose, fasted, plasma, read-out: AUC0-inf, Mean): 1390 ng·h/mL
Cmax ([1]; human, plasma, oral, 80 mg, 80 mg single dose, fasted, plasma, read-out: Cmax, GM): 232 ng/mL
Cmax ([1]; human, plasma, oral, 80 mg, 80 mg single dose, fasted, plasma, read-out: Cmax, Mean): 253 ng/mL
Cmax ([1]; human, plasma, oral, 80 mg, 80 mg single dose, fasted, plasma, read-out: Cmax, Median): 247 ng/mL
Vd/F ([1]; human, plasma, oral, 80 mg, 80 mg single dose, fasted, plasma, read-out: Vz/F, GM): 899 L
Vd/F ([1]; human, plasma, oral, 80 mg, 80 mg single dose, fasted, plasma, read-out: Vz/F, Mean): 992 L
Tmax ([1]; human, plasma, oral, 80 mg, 80 mg single dose, fasted, plasma, read-out: tmax, GM): 1.85 h
Tmax ([1]; human, plasma, oral, 80 mg, 80 mg single dose, fasted, plasma, read-out: tmax, Mean): 2 h
Tmax ([1]; human, plasma, oral, 80 mg, 80 mg single dose, fasted, plasma, read-out: tmax, Median): 1.75 h
AUC(0-inf) ([1]; human, plasma, oral, 120 mg, 120 mg single dose, fasted, plasma, read-out: AUC0-inf, GM): 1670 ng·h/mL
AUC(0-inf) ([1]; human, plasma, oral, 120 mg, 120 mg single dose, fasted, plasma, read-out: AUC0-inf, Mean): 1710 ng·h/mL
Cmax ([1]; human, plasma, oral, 120 mg, 120 mg single dose, fasted, plasma, read-out: Cmax, GM): 303 ng/mL
Cmax ([1]; human, plasma, oral, 120 mg, 120 mg single dose, fasted, plasma, read-out: Cmax, Mean): 316 ng/mL
Cmax ([1]; human, plasma, oral, 120 mg, 120 mg single dose, fasted, plasma, read-out: Cmax, Median): 260 ng/mL
Vd/F ([1]; human, plasma, oral, 120 mg, 120 mg single dose, fasted, plasma, read-out: Vz/F, GM): 1310 L
Vd/F ([1]; human, plasma, oral, 120 mg, 120 mg single dose, fasted, plasma, read-out: Vz/F, Mean): 1460 L
Tmax ([1]; human, plasma, oral, 120 mg, 120 mg single dose, fasted, plasma, read-out: tmax, GM): 2.54 h
Tmax ([1]; human, plasma, oral, 120 mg, 120 mg single dose, fasted, plasma, read-out: tmax, Mean): 2.58 h
Tmax ([1]; human, plasma, oral, 120 mg, 120 mg single dose, fasted, plasma, read-out: tmax, Median): 2.75 h
half-life ([1]; human, plasma, oral, 40 mg to 120 mg single dose, read-out: Mean terminal elimination half-life (t1/2 term), range over dose groups): 9.92 to 13.9 h
Tmax ([1]; human, plasma, oral, 40 mg to 120 mg single dose, read-out: Median tmax, range over dose groups): 1.5 to 2.75 h
CL renal ([1]; human, urine, oral, 40 mg, 40 mg single dose, fasted, urine, read-out: CLr, GM (converted)): 2.67 mL/min
CL renal ([1]; human, urine, oral, 40 mg, 40 mg single dose, fasted, urine, read-out: CLr, Mean (converted)): 2.67 mL/min
CL renal ([1]; human, urine, oral, 80 mg, 80 mg single dose, fasted, urine, read-out: CLr, GM (converted)): 3 mL/min
CL renal ([1]; human, urine, oral, 80 mg, 80 mg single dose, fasted, urine, read-out: CLr, Mean (converted)): 3.5 mL/min
CL renal ([1]; human, urine, oral, 120 mg, 120 mg single dose, fasted, urine, read-out: CLr, GM (converted)): 3.17 mL/min
CL renal ([1]; human, urine, oral, 120 mg, 120 mg single dose, fasted, urine, read-out: CLr, Mean (converted)): 3.5 mL/min
time plasma Bb remained near its nadir post-dose [2]: at least 16 hours
